Measurements reported in patent US9018252B2, “Stable compositions of dehydroascorbic acid” (priority 2010, dated 2015).

Legend:
[1] = test system: HSV-1, influenza virus, poliovirus; settings: cited from earlier work; for antiviral effects in vitro: viruses such as HSV-1, influenza virus, poliovirus
[2] = solid form; cited from earlier work
[3] = DHAA stability in polyol solutions (general statements); type: physicochemical
[4] = DHAA stability testing of propylene glycol/water solutions oxidized with Fenton's Reagent (Example 3); type: physicochemical; settings: room temperature
Source text: (§1) AA concentration in solution is commonly measured as the reducing activity of the solution using starch-iodine titration methods that are well-known in the art. […] This method is also well known in the art. DHAA in solution can be converted into AA by reducing agents such as dithiothreitol (DTT) or tris(2-carboxyethyl)phosphine (TCEP), and its concentration is commonly measured spectrophotometrically as the difference in absorbance of a solution subjected to reduction by DTT or TCEP versus a similar solution that is not subjected to a reducing agent. These methods are also well-known in the art, but see Deutsch for examples. In the description, claims, and the following examples, DHAA in the compositions of the invention is the vitamin C that can be measured by the difference in absorbance at 262 nm using TCEP reducing agent.
AA was dissolved in purified water to give a highly concentrated solution, and then sufficient 30% hydrogen peroxide was added to oxidize about half of the AA. Iron to catalyze the reaction was provided by addition of ferrous sulfate. Oxidation of the AA was monitored by spectrometry until the expected amount of AA had been oxidized. This solution was labeled “100% Water.” Portions of this solution were combined with portions of pure, USP grade propylene glycol to produce solutions of “97% Propylene Glycol,” “95% Propylene Glycol,” “90% Propylene Glycol,” “80% Propylene Glycol,” “70% Propylene Glycol,” and “50% Propylene Glycol.” For example, 3 parts by volume of the “100% Water” solution were combined with 97 parts by volume propylene glycol to yield the “97% Propylene Glycol” solution.
(§2) Aliquots of each of the solutions prepared above were placed in translucent, screw-capped polyethylene vials and were stored at room temperature. […] The concentration of DHAA in each sample was measured by spectrometry on each testing day. The initial DHAA concentration of each solution was recorded and assigned a value of 100% (Day 0), and the concentration on each subsequent stability test day was calculated as the percent remaining of the initial concentration.

human skin cells = settings: cited from earlier work
[5] = DHAA stability testing of glycerol solution oxidized with activated charcoal and oxygen (Example 2); type: physicochemical; settings: "100% Glycerol", activated charcoal/oxygen oxidation, room temperature, 191 days
Source text: as §1
A solution of AA in pure USP glycerol was subjected to oxidizing conditions by suspending activated charcoal in the solution and then bubbling pure oxygen through the solution. Oxidation of AA during this process was monitored by starch-iodine titration. After the desired amount of AA had been oxidized, the activated charcoal was removed from the solution by centrifugation and filtration. […] The concentration of DHAA in the sample was measured by spectrometry on each testing day. […]

[6] = Absorption of AA and DHAA into skin of human volunteers after topical application (Example 5); type: in vivo; settings: 1.4 mg/cm^2, after 4 hours
Protocol: This solution was applied topically to the skin of human volunteers to compare the absorption rate of AA versus DHAA. To assess permeation into the stratum corneum, the solution was diluted 1:1 with water and applied at a rate of 1.4 mg/cm^2 to delineated skin surfaces and allowed 0, 2 or 4 hours for absorption. Each skin surface was then washed with deionized water, and the skin washings were collected and measured for AA and DHAA content. The amount absorbed at 2 and 4 hours was determined by subtraction from the amount present in the 0 hour washings.
Data points are the mean+/−SD of triplicate analyses on 4 subjects. The 2 and 4 hour values are the difference as percentage from the 0 hour (baseline) values, determined by analysis of skin washings. It can be seem that after 4 hours DHAA had absorbed into the skin at a rate about 12 times greater than AA, and that the total vitamin C content of the skin was increased at a much more rapid rate than applying AA alone. (Asterisks on FIG. 21 indicate the following: * Statistically significant at P<0.05. ** Statistically significant at P<0.01).

[7] = DHAA stability testing of ozone-oxidized glycerol/water solutions (Example 1); type: physicochemical
Source text: as §1
A 15% AA solution in water was prepared by adding 15 grams AA per 100 mL purified water with stirring. A 15% solution of AA in glycerol was prepared by adding 15 grams AA per 100 mL pure USP glycerol and stirring with heat. A corona-discharge type ozone generator with feed-gas of pure oxygen was used to supply an oxidizing gas containing about 5% ozone, and each of the 15% AA solutions was subjected to oxidizing conditions by bubbling the oxidizing gas through the solution using a glass diffuser. The progress of AA oxidation in each solution was monitored by the disappearance of reducing activity as measured by starch-iodine titration. Each solution was subjected to the oxidizing conditions until all (>99%) of the original reducing activity had disappeared. The solution made with pure glycerol was labeled “100% Glycerol,” and the solution made with purified water was labeled “100% Water.” Portions of these two solutions were combined to produce solutions of various glycerol concentrations by weight, specifically “99% Glycerol,” “98% Glycerol,” “97% Glycerol,” “96% Glycerol,” “95% Glycerol”, “90% Glycerol,” and “50% Glycerol.” For example, 99 parts by weight of “100% Glycerol” was combined with 1 part by weight “100% Water” to produce the “99% Glycerol” solution.
Aliquots of each of the solutions prepared above were placed in translucent, screw-capped polyethylene vials and were stored at room temperature. No attempt was made to further protect the vials from ambient indoor light, and each vial contained a headspace of normal air. Each vial was periodically opened to remove a sample for stability testing over the next 229 days. The concentration of DHAA in each sample was measured by spectrometry on each testing day. The initial DHAA concentration of each solution on Day 1 was recorded and assigned a value of 100%, and the concentration on each subsequent stability test day was calculated as the percent remaining of the initial concentration.

[8] = DHAA stability testing of solutions with various AA:DHAA ratios (Example 4); type: physicochemical
Source text: AA concentration in solution is commonly measured as the reducing activity of the solution using starch-iodine titration methods that are well-known in the art. […] This method is also well known in the art. DHAA in solution can be converted into AA by reducing agents such as dithiothreitol (DTT) or tris(2-carboxyethyl)phosphine (TCEP), and its concentration is commonly measured spectrophotometrically as the difference in absorbance of a solution subjected to reduction by DTT or TCEP versus a similar solution that is not subjected to a reducing agent. These methods are also well-known in the art, but see Deutsch for examples. In the description, claims, and the following examples, DHAA in the compositions of the invention is the vitamin C that can be measured by the difference in absorbance at 262 nm using TCEP reducing agent. […]
as §2, with “transparent,” for “translucent,”, “glass” for “polyethylene”

Compound	antiviral effects in vitro [1]	ease of dissolving the solid in water, AA compared with DHAA [2]	antiviral effects of DHAA compared with AA ([1]; in vitro)	DHAA stability ([3]; polyol solutions with high water content (water to glycol/polyol at least 1:1))	DHAA stability ([3]; pure polyol solvents and solutions with polyol content greater than about 50 percent)	initial amount of DHAA remaining ([4]; "100% Water" solution (Fenton's Reagent), after 5 days)	DHAA concentration over time ([4]; many of the propylene glycol solutions, 31 days)	DHAA stability ([4]; solutions containing high concentrations of propylene glycol, 31 days)	level absorbed into cells, DHAA relative to AA (human skin cells)	speed of absorption into cells, DHAA relative to AA (human skin cells)	DHAA stability [5]	rate of absorption into the skin, DHAA relative to AA [6]	DHAA stability compared with water ([7]; 50% glycerol concentration, room temperature)	initial amount of DHAA remaining ([7]; "100% Water" solution, room temperature, tested at 20 days)	initial DHAA concentration remaining ([7]; pure glycerol ("100% Glycerol"), approximately 8 months of storage at room temperature)	DHAA stability ([7]; solutions containing high concentrations of glycerol, room temperature, up to 229 days)	initial amount of DHAA remaining ([8]; "Control": 100% water, initial AA:DHAA about 1:1, room temperature, after 3 days)	DHAA stability ([8]; polyol (100% glycerin) solutions with AA:DHAA ratios between 2:1 and 99:1, room temperature, 30 days)
O=C1O[C@H]([C@@H](O)CO)C(O)=C1O [AA, ascorbic acid]	antiviral effects	far more easily dissolved	–	–	–	–	–	–	–	–	–	–	–	–	–	–	–	–
O=C1O[C@H]([C@@H](O)CO)C(=O)C1=O [DHAA, dehydroascorbic acid]	antiviral effects	–	much stronger	not stable	stable	less than 20%	increased significantly	preserved very well	2 times	up to 5 times	excellent long-term stability	about 12 times	only minor improvement	less than 10%	greater than 80%	preserved very well	less than 20%	preserved very well
